Paper PMC8279484 (Journal of Medicinal Chemistry, 2021)
Like-named read-outs stand apart in the source and are kept apart here.

Test system: NF-κB
Test: LPS-induced NF-κB-driven luciferase gene reporter assay in THP-1 Lucia monocytes
Type: cell-based, human
Conditions: for Rel. Slope: HS relative to LXA4 (1); for IC50: Homo sapiens, THP-1; for Potency Rel. Pot.: IC50 relative to LXA4 (1); for Efficacy Rel. Eff.: Imax relative to LXA4 (1); for Imax (%): maximal % inhibition of LPS (50 ng/mL)-stimulated NF-κB luciferase activity, 30 min pretreatment; for Imax (%) / reduction of LPS-induced NF-κB-driven luciferase activity: 1 pM–1 μM; for (Single component) Rel. Score: Rel. Pot. / (Single component) Rel. Score: Rel. Sl.: score relative to LXA4 (1); for reduction of LPS-induced NF-κB-driven luciferase activity: approximate extent; for Slope HS (Hill–Slope): slope of concentration–response curve; for (Aggregate) Rel. PD Score: sum of efficacy, potency, slope scores relative to LXA4 (1)
Protocol: Mycoplasma-free THP-1-Lucia NF-κB cells were grown in an RPMI 1640 (Gibco) medium containing 2 mM L-glutamine, 1.50 g/L sodium bicarbonate, 4.50 g/L glucose, 10 mM N-(2-hydroxyethyl)piperazine-N′-ethanesulfonic acid (HEPES), and 1 mM sodium pyruvate. Then, 10% heat-inactivated fetal bovine serum (FBS) (30 min at 56 °C), 100 μg/mL Normocin, and Pen-Strep (50 U/mL to 50 μg/mL) were also added to the growth media. As THP-1-Lucia cells were resistant to Zeocin, the latter was used as a selective antibiotic (a high dose, i.e., 100 μg/mL, was alternated every 2 weeks with a low dose, i.e., 10 μg/mL).
LXA41 and all of the tested sLXms were dissolved in ethanol and further diluted in a culture medium (final ethanol concentration 0.1%; equivalent concentrations were used as the vehicle control). Prior to in vitro experiments, THP-1-Lucia NF-κB cells were harvested and plated at 1 × 10^5 cells/well on 96-well plates and left to settle in the incubator at 37 °C, 95% humidity, and 5% CO2, in 0.1% FBS-containing media, pretreated for 30 min with increasing doses of LXA41, sLXms (from 10^–12 to 10^–6 M), or appropriate controls, followed by stimulation with 50 ng/mL LPS for 24 h.
NFκB activity was monitored in the human THP-1 monocytic leukemia cell line containing a stably integrated NF-κB-inducible Lucia reporter construct (as previously reported).[21] When stimulated with LPS, the transcription factor NF-κB is activated, upregulating the synthesis of proinflammatory mediators, thus bringing about an inflammatory response. In these cells, NF-κB activation is linked to a […] luciferase gene and can be measured using luminescence.
Heat-killed listeria monocytogenes (HKLM) (10^8/mL) was used as a positive control.[28] The levels of NF-κB-induced Luciferase were then measured in a culture supernatant using QUANTI-Luc as the detection reagent, and measurements were taken on a bioluminescence reader.
After 24 h, the levels of NF-κB-induced Lucia were assayed in a cell culture supernatant using QUANTI-Luc, as a detection reagent, on a bioluminescence reader (Synergy HT, BioTek Instruments, Inc. Vermont). Aliquots of the supernatant were retained for subsequent cytokine and LDH assays. Cellular proteins were extracted with a radioimmunoprecipitation assay (RIPA) buffer (Thermo Fisher, Ireland), supplemented with protease inhibitors (Sigma-Aldrich, Ireland). Lysates were clarified by centrifugation (3200g, 10’, 4 °C) to remove cell debris, and the cell protein level was quantified by performing a bicinchoninic acid (BCA) assay (as per the manufacturer’s instructions) reading the protein absorbance at 570 nm, using a spectrophotometer (SPECTRAMAX M2, Molecular Devices (U.K.) Limited). A “relative luminescence unit” (RLU) was obtained using the average value of the lum/abs ratio of two replicates.
The “coding” of the heat-map indicates the arbitrary criteria to assign points to each single PD component (efficacy = Imax or Emax; potency = IC50 or EC50; slope = HS) to generate a final (aggregate) relative PD score. […] If a single PD component was equal to the reference level (x = 1), then the single-component relative score was arbitrarily set to 0 (gray). If a single PD component was smaller than the reference level (x < 1), then the single-component relative score was arbitrarily set to −1 (light red) or −2 (dark red). If the curve of a single PD component was best fitting to a flat line (x = 0), then the single-component relative score was arbitrarily set to −4 (purple) (Table S1).

[1] = LPS 50 ng/mL, 24 h, read-out: Potency IC50

Compound | Rel. Slope | IC50 (LPS 50 ng/mL, 24 h, read-out: IC50) [pM] | Potency Rel. Pot. | Efficacy Rel. Eff. | Imax (%) (24 h) | (Single component) Rel. Score: Rel. Pot. | (Single component) Rel. Score: Rel. Sl. | IC50 [1] [pM] | reduction of LPS-induced NF-κB-driven luciferase activity | Slope HS (Hill–Slope) | (Aggregate) Rel. PD Score | IC50 (range in words) (LPS 50 ng/mL, 24 h)
CCCCC[C@@H](O)c1nc2ccccc2nc1/C=C/[C@@H](O)[C@@H](O)CCCC(=O)OC [(R)-6, Methyl (5S,6R,E)-5,6-Dihydroxy-8-(3-((R)-1-hydroxyhexyl)quinoxalin-2-yl)oct-7-enoate] | 57 | 25 | 2.4 | 1.58 | 38 ± 9 | 1 (1 < x < 5) | 2 (x ≥ 10) | – | – | – | – | –
CCCCC[C@@H](O)c1nc2ccccc2nc1/C=C/[C@H]1OC(C)(C)O[C@H]1CCCC(=O)OC [(R)-17, Methyl 4-((4S,5R)-5-((E)-2-(3-((R)-1-Hydroxyhexyl)quinoxalin-2-yl)vinyl)-2,2-dimethyl-1,3-dioxolan-4-yl)butanoate] | 0 | – | 60 | 0.75 | 18 ± 7 | 2 (x ≥ 5) | -4 (x = 0) | 1 | least effective | 0 | -3 | –
CCCCCCC[C@H](O)c1nc2ccccc2nc1/C=C/[C@@H](O)[C@@H](O)CCCC(=O)OC [(S)-8, Methyl (5S,6R,E)-5,6-Dihydroxy-8-(3-((S)-1-hydroxyoctyl)quinoxalin-2-yl)oct-7-enoate] | 0 | – | 6 | 0.96 | 23 ± 8 | 2 (x ≥ 5) | -4 (x = 0) | 10 | 10–20% | 0 | -2 | “pM” range
CCCCC[C@H](O)/C=C/C=C\C=C\C=C\[C@@H](O)[C@@H](O)CCCC(=O)O [Compound 1, LXA4] | 1 | – | 1 | 1 | 24 ± 1 | – | – | – | – | – | – | –
CCCCC[C@@H](O)c1c(/C=C/[C@@H](O)[C@@H](O)CCCC(=O)OC)nc(C)n1C [Compound 5, imidazolo-LXA4] | -9 | – | 300 | 1.83 | 44 ± 9 | 2 (x ≥ 5) | 1 (1 < x < 10) | – | – | 90 | 5 | –
